According to ChEMBL document CHEMBL1141321, “Amphidinolides B6 and B7, cytotoxic macrolides from a symbiotic dinoflagellate Amphidinium species” (J Nat Prod, 2007):
In brackets after ≈: the same amount, converted by molar mass.

System: DG-75
Assay: Cytotoxicity against human DG75 cells
Type: functional, cell-based

Row | Compound | IC50 [µg/mL]
1 | C=C1/C=C(\C)[C@@H](C)C[C@H](O)CC(=O)[C@H](O)[C@@H](O)[C@H](C)C[C@H](CO)OC(=O)/C(C)=C/CC/C=C/[C@@H]2O[C@H]2C[C@H](C)C1 [AMPHIDINOLIDE H] | 0.001 (≈ 0.00178 µM)
2 | C=C1/C=C(\C)[C@@H](C)C[C@H](O)CC(=O)[C@H](O)[C@@H](O)[C@H](C)C[C@H](C)OC(=O)[C@@H](C)[C@@H](O)CCCC[C@@H]2O[C@H]2C[C@H](C)C1 [AMPHIDINOLIDE B6] | 0.02 (≈ 0.0353 µM)
3 | C=C1/C=C(\C)[C@@H](C)C[C@H](O)CC(=O)[C@H](O)[C@@H](O)[C@H](C)C[C@H](C)OC(=O)/C(C)=C/CC/C=C/[C@@H]2O[C@H]2C[C@H](C)C1 [AMPHIDINOLIDE B7] | 0.4 (≈ 0.732 µM)
